Experimental data as given in US9523100B2, “Pesticidal compositions and related methods” (DOW AGROSCIENCES LLC, priority 2013, dated 2016).

Tests used:
[1] = tested on: Green Peach Aphid (GPA) (Myzus persicae) (MYZUPE); test: Bioassay for Green Peach Aphid (GPA), foliar spray on cabbage seedlings; assay type: in vivo; conditions: 72 h, 200 ppm foliar spray on cabbage seedlings, graded after three days, Abbott corrected % control, read-out: GPA 200 ppm, % Control (or Mortality) rating
Procedure, shortened: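 Cabbage seedlings infested with 20-50 GPA (wingless adults and nymphs) one day before spraying to runoff with 200 ppm compound; four pots per treatment. Live aphids counted after three days at ~25° C; percent control by Abbott's correction against solvent-sprayed plants.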

[2] = tested on: Sweetpotato Whitefly-Crawler (WF) (Bemisia tabaci) (BEMITA); test: Insecticidal test for Sweetpotato Whitefly-Crawler (WF) in foliar spray assay on cotton plants; assay type: in vivo; conditions: 216 h, 200 ppm foliar spray on cotton plants, graded after 9 days, Abbott corrected % control, read-out: WF 200 ppm, % Control (or Mortality) rating
Procedure, shortened: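 Cotton plants carrying 200–400 whitefly eggs sprayed to run-off on both leaf surfaces at 200 ppm (acetone/0.025% Tween 20), four plants per treatment. After 9 days at about 25 °C, live 3rd–4th instar nymphs counted; Abbott-corrected percent control versus solvent check.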

| Compound | mortality at 200 ppm [1] | mortality at 200 ppm [2] |
| --- | --- | --- |
| CCN(C(=O)CC/C(C)=N/OCc1ccc(OC(F)(F)F)cc1)c1cn(-c2cccnc2)nc1Cl [FA40, (E/Z)-N-(3-Chloro-1-(pyridin-3-yl)-1H-pyrazol-4-yl)-N-ethyl-4-(((4-(trifluoromethoxy)benzyl)oxy)imino)pentanamide] | 0 to 80% | 80 to 100% |
| CCN(C(=O)C1CCCN(C(=O)C(F)(F)F)C1)c1cn(-c2cccnc2)nc1Cl (stereo not drawn) [FA41, N-(3-Chloro-1-(pyridin-3-yl)-1H-pyrazol-4-yl)-N-ethyl-1-(2,2,2-trifluoroacetyl)piperidine-3-carboxamide] | 80 to 100% | 0 to 80% |
| CCN(C(=O)C1CCCN(C(=O)CC(F)(F)F)C1)c1cn(-c2cccnc2)nc1Cl (stereo not drawn) [FA42, N-(3-Chloro-1-(pyridin-3-yl)-1H-pyrazol-4-yl)-N-ethyl-1-(3,3,3-trifluoropropanoyl)piperidine-3-carboxamide] | 80 to 100% | 0 to 80% |
| CCN(C(=O)C1CCCN(C(=O)CCC(F)(F)F)C1)c1cn(-c2cccnc2)nc1Cl (stereo not drawn) [FA43, N-(3-Chloro-1-(pyridin-3-yl)-1H-pyrazol-4-yl)-N-ethyl-1-(4,4,4-trifluorobutanoyl)piperidine-3-carboxamide] | 80 to 100% | 80 to 100% |
| CCN(C(=O)C1CCCN(C(=O)CCC#N)C1)c1cn(-c2cccnc2)nc1Cl (stereo not drawn) [FA44, N-(3-chloro-1-(pyridin-3-yl)-1H-pyrazol-4-yl)-1-(3-cyanopropanoyl)-N-ethylpiperidine-3-carboxamide] | 80 to 100% | 80 to 100% |
| CCN(C(=O)C1CCCN(C(C)=O)C1)c1cn(-c2cccnc2)nc1Cl (stereo not drawn) [FA45, 1-Acetyl-N-(3-chloro-1-(pyridin-3-yl)-1H-pyrazol-4-yl)-N-ethylpiperidine-3-carboxamide] | 80 to 100% | 0 to 80% |
| CCN(C(=O)CC/C(C)=N\O)c1cn(-c2cccnc2)nc1Cl [FA46, (Z)-N-(3-Chloro-1-(pyridin-3-yl)-1H-pyrazol-4-yl)-N-ethyl-4-(hydroxyimino)pentanamide] | 0 to 80% | 80 to 100% |
| CCN(C(=O)CC/C(C)=N\OCCC1CC1(F)F)c1cn(-c2cccnc2)nc1Cl (stereo not drawn) [FA49, (Z)-N-(3-Chloro-1-(pyridin-3-yl)-1H-pyrazol-4-yl)-4-((2-(2,2-difluorocyclopropyl)ethoxy)imino)-N-ethylpentanamide] | 0 to 80% | 80 to 100% |
| CCN(C(=O)CC/C(C)=N/OCCC1CC1(F)F)c1cn(-c2cccnc2)nc1Cl (stereo not drawn) [FA50, (E)-N-(3-Chloro-1-(pyridin-3-yl)-1H-pyrazol-4-yl)-4-((2-(2,2-difluorocyclopropyl)ethoxy)imino)-N-ethylpentanamide] | 80 to 100% | 80 to 100% |
| CCN(C(=O)C(C)C/C(C)=N\OCCC1CC1(F)F)c1cn(-c2cccnc2)nc1Cl (stereo not drawn) [FA57, (Z)-N-(3-Chloro-1-(pyridin-3-yl)-1H-pyrazol-4-yl)-4-((2-(2,2-difluorocyclopropyl)ethoxy)imino)-N-ethyl-2-methylpentanamide] | 80 to 100% | 0 to 80% |
| CCN(C(=O)C(C)C/C=N\OCCC1CC1(F)F)c1cn(-c2cccnc2)nc1Cl (stereo not drawn) [FA59, (Z)-N-(3-Chloro-1-(pyridin-3-yl)-1H-pyrazol-4-yl)-4-((2-(2,2-difluorocyclopropyl)ethoxy)imino)-N-ethyl-2-methylbutanamide] | 80 to 100% | 80 to 100% |
| CCN(C(=O)C(C)C/C=N/OCCC1CC1(F)F)c1cn(-c2cccnc2)nc1Cl (stereo not drawn) [FA60, (E)-N-(3-Chloro-1-(pyridin-3-yl)-1H-pyrazol-4-yl)-4-((2-(2,2-difluorocyclopropyl)ethoxy)imino)-N-ethyl-2-methylbutanamide] | 80 to 100% | 80 to 100% |
| CCN(C(=O)CCC1CCN(CCC2CC2(F)F)C1=O)c1cn(-c2cccnc2)nc1Cl (stereo not drawn) [FA62, N-(3-Chloro-1-(pyridin-3-yl)-1H-pyrazol-4-yl)-3-(1-(2-(2,2-difluorocyclopropyl)ethyl)-2-oxopyrrolidin-3-yl)-N-ethylpropanamide] | 80 to 100% | 80 to 100% |
| CCN(C(=O)CC1CCNC1=O)c1cn(-c2cccnc2)nc1Cl (stereo not drawn) [FA63] | 80 to 100% | 80 to 100% |
| CCN(C(=O)CC1CCN(CCC2CC2(F)F)C1=O)c1cn(-c2cccnc2)nc1Cl (stereo not drawn) [FA64, N-(3-Chloro-1-(pyridin-3-yl)-1H-pyrazol-4-yl)-2-(1-(2-(2,2-difluorocyclopropyl)ethyl)-2-oxopyrrolidin-3-yl)-N-ethylacetamide] | 80 to 100% | 80 to 100% |
| CCN(C(=O)CC1CCN(CC(F)(F)F)C1=O)c1cn(-c2cccnc2)nc1Cl (stereo not drawn) [FA65, N-(3-Chloro-1-(pyridin-3-yl)-1H-pyrazol-4-yl)-N-ethyl-2-(2-oxo-1-(2,2,2-trifluoroethyl)pyrrolidin-3-yl)acetamide] | 80 to 100% | 80 to 100% |
| CCN(C(=O)CC(C)=O)c1cn(-c2cccnc2)nc1Cl [FA66, N-(3-chloro-1-(pyridin-3-yl)-1H-pyrazol-4-yl)-N-ethyl-3-oxobutanamide] | 80 to 100% | 80 to 100% |
| CCN(C(=O)CCn1ccc(C(C)=O)n1)c1cn(-c2cccnc2)nc1Cl [FA68, 3-(3-Acetyl-1H-pyrazol-1-yl)-N-(3-chloro-1-(pyridin-3-yl)-1H-pyrazol-4-yl)-N-ethylpropanamide] | < 0% | 80 to 100% |
| CC(=O)CCC(=O)N(C)c1cn(-c2cccnc2)nc1C [FA69, N-methyl-N-(3-methyl-1-(pyridin-3-yl)-1H-pyrazol-4-yl)-4-oxopentanamide] | 0 to 80% | 80 to 100% |
| CCN(C(=O)CCCC(C)=O)c1cn(-c2cncc(F)c2)nc1C [FA70, N-Ethyl-N-(1-(5-fluoropyridin-3-yl)-3-methyl-1H-pyrazol-4-yl)-5-oxohexanamide] | 0 to 80% | 80 to 100% |
| CCN(C(=O)C1CCC(=O)C1)c1cn(-c2cncc(F)c2)nc1C (stereo not drawn) [FA71, N-Ethyl-N-(1-(5-fluoropyridin-3-yl)-3-methyl-1H-pyrazol-4-yl)-3-oxocyclopentanecarboxamide] | 0 to 80% | 0 to 80% |
| CCN(C(=O)COC(C)=O)c1cn(-c2cccnc2)nc1Cl [FA72, 2-((3-Chloro-1-(pyridin-3-yl)-1H-pyrazol-4-yl)(ethyl)amino)-2-oxoethyl acetate] | 0 to 80% | 80 to 100% |
| CCN(C(=O)C(C)(C)OC(C)=O)c1cn(-c2cccnc2)nc1Cl [FA73, 1-((3-Chloro-1-(pyridin-3-yl)-1H-pyrazol-4-yl)(ethyl)amino)-2-methyl-1-oxopropan-2-ylacetate] | 80 to 100% | 0 to 80% |
| CCN(C(=O)C(C)OC(=O)CC(F)(F)F)c1cn(-c2cccnc2)nc1Cl (stereo not drawn) [FA74, 1-((3-Chloro-1-(pyridin-3-yl)-1H-pyrazol-4-yl)(ethyl)amino)-1-oxopropan-2-yl 3,3,3-trifluoropropanoate] | 80 to 100% | 0 to 80% |
| CC(=O)CCC(=O)N(C)c1cn(-c2cccnc2)nc1Cl [FA75, N-(3-Chloro-1-(pyridin-3-yl)-1H-pyrazol-4-yl)-N-methyl-4-oxopentanamide] | 0 to 80% | 80 to 100% |
| CCN(C(=O)CCC(=O)CCC(F)(F)F)c1cn(-c2cccnc2)nc1Cl [FA76, N-(3-Chloro-1-(pyridin-3-yl)-1H-pyrazol-4-yl)-N-ethyl-7,7,7-trifluoro-4-oxoheptanamide] | 0 to 80% | 80 to 100% |
| CCN(C(=O)CCC(=O)N(C)Cc1ccco1)c1cn(-c2cccnc2)nc1Cl [FA77, N1-(3-Chloro-1-(pyridin-3-yl)-1H-pyrazol-4-yl)-N1-ethyl-N4-(furan-2-ylmethyl)-N4-methylsuccinamide] | 0 to 80% | 80 to 100% |
